Reference: US11820762B2, “Compounds as potential therapeutic agents targeting various neurodegenerative diseases” (The Hong Kong University of Science and Technology, priority 2020, dated 2023)

Legend:
Tau-R3 = target: T1, Tau-R3 (Homo sapiens, UniProt P10636); experiment: Thioflavin T (ThT) fluorescent tau-R3 aggregation assay; format: biochemical; details: 20 μM Tau-R3, 10 μM heparin, read-out: IC50 of Tau-R3 aggregation inhibition (converted)
T1 construct: Tau-R3 protein was synthesized and purchased from ChinaPeptides Co., Ltd; purchased ChinaPeptides Co., Ltd; host or cells: chemical synthesis
Procedure: Tau-R3 protein was synthesized and purchased from ChinaPeptides Co., Ltd. ThT (ab120751, 1 mM) solution was freshly prepared in 50 mM Tris-HCl buffer (pH 7.4) and passed through a 0.45 μm pore size filter to remove insoluble particles before use. Tau-R3 (20 μM) was incubated with 20 μM ThT and 10 μM heparin in the presence or absence of cA, cB and cC. Samples in 200 μL were added to 96-well plates and incubated at 37° C. for 24-48 hours. ThT fluorescence intensity was recorded using a microplate reader with 440/480 nm excitation/emission filters at different time points. Non-linear regression analysis was performed to fit the boltzmann sigmoidal.
In the C9orf72 ALS/FTD, there is a strong genetic association between the microtubule-binding protein, tau and the G4C2 HRE. […] The co-expression of Tau and G4C2 repeats produces a synergistic deterioration of the neurodegeneration phenotype of ALS/FTD^46. Considering the tight correlation of Tau aggregation with the ALS/FTD pathogenesis, we tested our compounds in a non-cell-based Tau-R3 aggregation inhibition assay. […] Moreover, we conducted high magnification TEM imaging to characterize the morphological changes of Tau-R3 fibrils with cA, cB and cC treatments. […] Furthermore, the misfolding of tau protein into filaments in neurons of the central nervous system can be found in various neurodegenerative diseases, such as Alzheimer's disease et al. Therefore, the inhibition on tau aggregation represented a potential of cA and its derivatives in targeting multiple other neurodegenerative diseases more than ALS.

[1] = system: GMR-GAL4-(G4C2)29 Drosophila; experiment: Drosophila feeding and external eye assay; format: in vivo; details: 100 μM in solid food during larval stage; day 7 after eclosion
Procedure: A fly line expressing 29 GGGGCC repeats (29R) (SEQ ID NO: 6), under the GMR-GAL4 promoter (GMR-GAL4-(G4C2)29 (SEQ ID NO: 6)), was used. Both GMR-GAL4-(G4C2)29 (SEQ ID NO: 6) and WT flies were raised at room temperature (25° C.) on a cornmeal medium supplemented with dry yeast. […] Parent flies for cross were set in solid food containing testing compound, and F1 larvae were thus fed with food continuously until eclosion. After eclosion, F1 flies were transferred to normal food containers without compounds.
Eye images of GMR-GAL4-(G4C2)29 (SEQ ID NO: 6) or WT adult flies at day 7 after eclosion were captured using a CCD camera on an Olympus stereomicroscope. Eye morphologies of flies in different treatment groups were compared to evaluate the retina degeneration level. The affected eye area and total eye area were measured to calculate the degeneration ratio by ImageJ.
We next treated WT Drosophila and Drosophila with GMR-GAL4 driver promoted expression of (G4C2)29-repeats (SEQ ID NO: 6) (GMR-GAL4-(G4C2)29) (SEQ ID NO: 6) with cA or cC by feeding larvae with compounds in solid food. DMSO was used as a negative control. The eyes of day 7 adult Drosophila with GMR-GAL4-(G4C2)29 (SEQ ID NO: 6) were much rougher than the same age WT fly, indicating eye degeneration (FIG. 8E). The affected eye degeneration area accounted for over 50% of the whole eye (FIG. 8F).

RRM domain of hnRNP H = target: T2, RRM domain of hnRNP H (Homo sapiens, UniProt P31943); experiment: 1H-15N HSQC NMR titration of hnRNP H RRM domain; format: binding; details: ratios 1:5 and 1:10
T2 construct: HSQC spectra of RRM1/2 of hnRNP H; hexahistidine (cleaved yes); made in house; host or cells: Escherichia coli BL21(DE3), pET-28a(+)
T2 sequence (P31943 1-194 limits assumed): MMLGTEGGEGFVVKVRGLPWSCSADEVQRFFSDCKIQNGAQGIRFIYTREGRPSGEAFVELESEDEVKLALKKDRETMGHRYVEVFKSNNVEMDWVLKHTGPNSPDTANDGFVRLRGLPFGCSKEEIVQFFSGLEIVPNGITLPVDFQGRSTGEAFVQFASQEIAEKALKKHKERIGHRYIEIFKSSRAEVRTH
Procedure: The coding sequence of the RRM domain of hnRNP H/F, or human Orc6 was inserted into the expression vector pET-28a(+) (Novagen). Protein was expressed in Escherichia coli BL21(DE3) at 37° C. for 5 hours. Cell lysates were subject to affinity purification with nickel-nitrilotriacetic acid resin (Qiagen) followed by cleavage of hexahistidine tag with Protease 3C enzyme. Products were further purified on a Superdex 75 column (GE Healthcare). For NMR studies, uniformly ^15N labeled protein was expressed and purified as described above, except for cells grown in M9 medium containing 100% ^15N enriched ammonium chloride (Cambridge Isotopes) and d-glucose.
Titration experiments were performed by recording a series of 2D ^15N-HSQC spectra on uniformly ^15N-labeled RRM domain (˜0.1 mM) in the presence of different amounts of DNA/RNA or compounds at 25° C. Protein samples and stock solutions of DNA/RNA were all prepared in 20 mM potassium phosphate buffer and 70 mM KCl, pH 7.0, 10% D2O. All compounds were dissolved in isotope-labeled d6-DMSO (Sigma-Aldrich) at about 50 mM concentration, working as stock solutions. To avoid chemical shift changes of protein samples resulted from d6-DMSO addition, 10 μL d6-DMSO was added into 500 μL of 0.1 mM protein solution in the NMR buffer (20 mM potassium phosphate buffer and 70 mM KCl, pH 7.0, 10% D2O) and then the 2D HSQC was recorded as a reference.
In this scenario, specific RNA-binding proteins (RBPs), like hnRNP H, are recruited by the RNA foci, resulting in RNA processing impairment and further cytotoxicity to the central nervous system^30,36,37. Therefore, we tested the binding possibility of cA with the RRM domain of hnRNP H by NMR titration. […] Intriguingly, the DNA (G4C2)4 (SEQ ID NO: 5) G4 was also shown a potent binding affinity to the RRM domain of hnRNP H (FIG. 4C).

T1 sequence (P10636 623-653 limits assumed): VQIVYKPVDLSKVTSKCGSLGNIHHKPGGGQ

SMILES | IC50 (Tau-R3) | eye degeneration phenotype [1] | binding to RRM domain of hnRNP H by NMR titration (RRM domain of hnRNP H)
CC(=O)Cc1cc2c(c(O)c1C(=O)O)-c1c(c(O)c3oc4c(O[C@@H]5OC(C(=O)O)=C[C@H](O)[C@H]5O)cccc4c(=O)c3c1O)CC2 [cA, chrexanthomycin A] | ~518 nM | significantly rescuing the eye degeneration phenotype | bound to the RRM domain of hnRNP H
CC(=O)Cc1cc2c(c(O)c1C(=O)O)-c1c(c(O)c3oc4c(O[C@@H]5O[C@H](C(=O)O)[C@@H](O)[C@H](O)[C@H]5O)cccc4c(=O)c3c1O)CC2 [cC, chrexanthomycin C] | 5760 nM | significantly rescuing the eye degeneration phenotype | a little bit stronger than cA
COc1c2c(c(O)c3c(=O)c4cccc(O[C@@H]5OC(C(=O)O)=C[C@H](O)[C@H]5O)c4oc13)-c1c(cc(CC(C)=O)c(C(=O)O)c1O)CC2 [cB, chrexanthomycin B] | 2050 nM | – | much weaker bindings
